What was measured:
[1] = pulsating bubble technique ("bubble assay" of Enhorning, Enhorning Surfactometer); assay type: physicochemical; conditions: for Pressure Gradient 15″: 15 seconds; for Pressure Gradient 15″ / Pressure Gradient 1′ / Pressure Gradient 5′: peptide 10% by weight of PL, 37° C., negative pressure, mean of 3; for Pressure Gradient 1′: 1 minute; for Pressure Gradient 5′: 5 minutes
Description: Measurements of surface pressure across an air-liquid interface (expressed in negative cm of H2O pressure) at minimal (γmin) bubble radius were determined at various times using the pulsating bubble technique described by Enhorning, J. Appl. Physiol. 43: 198-203 (1977).
Briefly, the Enhorning Surfactometer (Surfactometer International, Toronto, Ontario) measures the pressure gradient (ΔP) across a liquid-air interface of a bubble that pulsates at a rate of 20 cycles/min between a maximal (0.55 mm) and minimal (0.4 mm) radius. The bubble, formed in a 37° C., water-enclosed, 20-μl sample chamber, is monitored through a microscopic optic while the pressure changes are recorded on a strip chart recorder calibrated for 0 and −2 cm H2O.
Each of the surfactants identified in Table 5 was assayed for surfactant activity as evidenced by their ability to reduce surface tension in vitro using the “bubble assay” of Enhorning as described above.
After admixture with solvent, each peptide was admixed with phospholipids (PL), DPPC:PG, 3:1, in chloroform in a glass tube so that the amount of polypeptide added equaled one-tenth (10% by. weight) of the amount of PL added, to form a surfactant according to either method A, B or C.
Each of the surfactants was then assayed for surfactant activity as evidenced by their ability to reduce surface tension in vitro in the bubble assay performed as described above. The pressure gradient (ΔP) is a measure of surfactant activity in the polypeptide-PL third admixture which was determined using an Enhorning Surfactometer as described above. Measurements were obtained at time points of 15 seconds (15″), 1 minute (1′) and 5 minutes (5′) and are expressed as a mean of three independent measurements of the indicated polypeptide-PL admixture.

[2] = observation whether peptide/solvent admixture formed a solution or a suspension; assay type: physicochemical
Description: Each polypeptide was admixed with the indicated solvent at a concentration of 2.5 mg of polypeptide per ml of solvent. […] Those admixtures forming a suspension were further admixed by water bath sonication for 10 seconds to form a very fine suspension, sufficient for pipetting using glass pipettes.

[3] = 2.5 μg of peptide per μl of solvent, solvent H2O
[4] = 2.5 mg of polypeptide per ml of solvent, solvent 75% chloroform 25% methanol

RLLLLLLLLRLLLLLLLLRLL [RL8]
Pressure Gradient 15″ ([1]; PL (DPPC:PG 3:1) 10 mg/ml): 0.68 cm of H2O | Pressure Gradient 1′ ([1]; PL (DPPC:PG 3:1) 10 mg/ml): 0.69 cm of H2O | Pressure Gradient 5′ ([1]; PL (DPPC:PG 3:1) 10 mg/ml): 0.19 cm of H2O | Admixture Formed ([2]; 2.5 mg of polypeptide per ml of solvent, solvent 19% chloroform 81% methanol): suspension

VAQVCRVVPLVAGGI [p31-45]
Admixture Formed [2, 3]: solution

ERYSVILLDTLLGRMLPQLVCRLVLRCSMDD [p51-81]
Pressure Gradient 15″ ([1]; PL (DPPC:PG 3:1) 10 mg/ml): 0.94 cm of H2O | Pressure Gradient 1′ ([1]; PL (DPPC:PG 3:1) 10 mg/ml): 0.86 cm of H2O | Pressure Gradient 5′ ([1]; PL (DPPC:PG 3:1) 10 mg/ml): 0.64 cm of H2O | Admixture Formed ([2]; 2.5 mg of polypeptide per ml of solvent, solvent 50% chloroform 50% methanol): suspension

RRLLLLLLLRRLLLLLLLRRL [RL7]
Pressure Gradient 15″ ([1]; PL (DPPC:PG 3:1) 4 mg/ml): 1.65 cm of H2O | Pressure Gradient 1′ ([1]; PL (DPPC:PG 3:1) 4 mg/ml): 1.25 cm of H2O | Pressure Gradient 5′ ([1]; PL (DPPC:PG 3:1) 4 mg/ml): 1.00 cm of H2O | Admixture Formed ([2]; 2.5 mg of polypeptide per ml of solvent, solvent 49% chloroform 51% methanol): solution

C RLVLRCSMDD (N-terminal Cys) [p71-81]
Admixture Formed [2, 3]: suspension

SVILLDTLLGRMLPQLVCRLVLR [p54-76]
Pressure Gradient 15″ ([1]; PL (DPPC:PG 3:1) 10 mg/ml): 0.92 cm of H2O | Pressure Gradient 1′ ([1]; PL (DPPC:PG 3:1) 10 mg/ml): 0.82 cm of H2O | Pressure Gradient 5′ ([1]; PL (DPPC:PG 3:1) 10 mg/ml): 0.23 cm of H2O | Admixture Formed ([2]; 2.5 mg of polypeptide per ml of solvent, solvent 71% chloroform 24% methanol): suspension

LLGRMLPQLVCRLVL [p61-75]
Admixture Formed ([2]; 2.5 μg of peptide per μl of solvent, solvent methanol): suspension

SVILLDTLLGRMLPQLVCR [p54-72]
Pressure Gradient 15″ ([1]; PL (DPPC:PG 3:1) 10 mg/ml): 1.28 cm of H2O | Pressure Gradient 1′ ([1]; PL (DPPC:PG 3:1) 10 mg/ml): 0.92 cm of H2O | Pressure Gradient 5′ ([1]; PL (DPPC:PG 3:1) 10 mg/ml): 0.38 cm of H2O | Admixture Formed ([2]; 2.5 mg of polypeptide per ml of solvent, solvent 76% chloroform 24% methanol): suspension

LPQLVCRLVLRCSMDD [p66-81]
Pressure Gradient 15″ ([1]; PL (DPPC:PG 3:1) 4 mg/ml): 1.22 cm of H2O | Pressure Gradient 1′ ([1]; PL (DPPC:PG 3:1) 4 mg/ml): 1.11 cm of H2O | Pressure Gradient 5′ ([1]; PL (DPPC:PG 3:1) 4 mg/ml): 0.84 cm of H2O | Admixture Formed ([2]; 2.5 μg of peptide per μl of solvent, solvent methanol:H2O): suspension | Admixture Formed ([2]; 2.5 mg of polypeptide per ml of solvent, solvent 40% DMF 60% chloroform): suspension

MIPKGALAVAVAQVC [p21-35]
Admixture Formed ([2]; 2.5 μg of peptide per μl of solvent, solvent Chloroform): suspension

DTLLGRMLPQLVCRLVLRCSMDD [p59-81]
Pressure Gradient 15″ ([1]; PL (DPPC:PG 3:1) 4 mg/ml): 1.08 cm of H2O | Pressure Gradient 1′ ([1]; PL (DPPC:PG 3:1) 4 mg/ml): 1.02 cm of H2O | Pressure Gradient 5′ ([1]; PL (DPPC:PG 3:1) 4 mg/ml): 0.75 cm of H2O | Admixture Formed ([2]; 2.5 mg of polypeptide per ml of solvent, solvent 68% chloroform 32% methanol): solution

ERYSVILLDTLLGRMLPQLVCR [p51-72]
Pressure Gradient 15″ ([1]; PL (DPPC:PG 3:1) 10 mg/ml): 1.15 cm of H2O | Pressure Gradient 1′ ([1]; PL (DPPC:PG 3:1) 10 mg/ml): 0.76 cm of H2O | Pressure Gradient 5′ ([1]; PL (DPPC:PG 3:1) 10 mg/ml): 0.33 cm of H2O | Admixture Formed [2, 4]: suspension

CQCLAERYSVILLDTLLGRMLPQLVCRLVLR [p46-76]
Pressure Gradient 15″ ([1]; PL (DPPC:PG 3:1) 10 mg/ml): 0.90 cm of H2O | Pressure Gradient 1′ ([1]; PL (DPPC:PG 3:1) 10 mg/ml): 0.80 cm of H2O | Pressure Gradient 5′ ([1]; PL (DPPC:PG 3:1) 10 mg/ml): 0.62 cm of H2O | Admixture Formed ([2]; 2.5 mg of polypeptide per ml of solvent, solvent 64% chloroform 36% methanol): solution

RLLLLCLLLRLLLLCLLLR [RCL-1]
Pressure Gradient 15″ ([1]; PL (DPPC:PG 3:1) 10 mg/ml): 0.50 cm of H2O | Pressure Gradient 1′ ([1]; PL (DPPC:PG 3:1) 10 mg/ml): 0.59 cm of H2O | Pressure Gradient 5′ ([1]; PL (DPPC:PG 3:1) 10 mg/ml): 0.06 cm of H2O | Admixture Formed ([2]; 2.5 mg of polypeptide per ml of solvent, solvent 79% chloroform 21% methanol): suspension

p74-81: eight amino acid residue control peptide, residues 74-81 of SEQ ID NO 12 (SP18), does not conform to the teachings of the invention (VLRCSMDD) [reference compound]
Pressure Gradient 15″ ([1]; PL (DPPC:PG 3:1) 4 mg/ml): 2.37 cm of H2O | Pressure Gradient 1′ ([1]; PL (DPPC:PG 3:1) 4 mg/ml): 2.32 cm of H2O | Pressure Gradient 5′ ([1]; PL (DPPC:PG 3:1) 4 mg/ml): 2.31 cm of H2O | surfactant activity compared with the phospholipids alone ([1]; peptide admixed with phospholipids (DPPC:PG 3:1), bubble assay): did not form a PS having a greater activity than the phospholipid alone | Admixture Formed [2, 3]: solution | Admixture Formed ([2]; 2.5 mg of polypeptide per ml of solvent, solvent water): solution

RLLLLCLLLRLLLLCLLLRLLLLCLLLR [RCL-3]
Pressure Gradient 15″ ([1]; PL (DPPC:PG 3:1) 10 mg/ml): 0.55 cm of H2O | Pressure Gradient 1′ ([1]; PL (DPPC:PG 3:1) 10 mg/ml): 0.51 cm of H2O | Pressure Gradient 5′ ([1]; PL (DPPC:PG 3:1) 10 mg/ml): 0.33 cm of H2O | Admixture Formed [2, 4]: suspension

RLLLLRLLLLRLLLLRLLLLR [RL4]
Pressure Gradient 15″ ([1]; PL (DPPC:PG 3:1) 4 mg/ml): 0.58 cm of H2O | Pressure Gradient 1′ ([1]; PL (DPPC:PG 3:1) 4 mg/ml): 0.65 cm of H2O | Pressure Gradient 5′ ([1]; PL (DPPC:PG 3:1) 4 mg/ml): 0.33 cm of H2O | Admixture Formed ([2]; 2.5 mg of polypeptide per ml of solvent, solvent 32% chloroform 68% methanoi): solution

ERYSVILLDTLLGRM [p51-65]
Admixture Formed [2, 3]: suspension

CRALIKRIQAMIPKG [p11-25]
Admixture Formed [2, 3]: solution

VAGGICQCLAERYSV [p41-55]
Admixture Formed [2, 3]: solution

RLLLLCLLLRLLLLCLLLRLL [RCL-2]
Pressure Gradient 15″ ([1]; PL (DPPC:PG 3:1) 10 mg/ml): 0.00 cm of H2O | Pressure Gradient 1′ ([1]; PL (DPPC:PG 3:1) 10 mg/ml): 0.00 cm of H2O | Pressure Gradient 5′ ([1]; PL (DPPC:PG 3:1) 10 mg/ml): 0.00 cm of H2O | Admixture Formed ([2]; 2.5 mg of polypeptide per ml of solvent, solvent 67% chloroform 33% methanol): suspention

Reference: patent publication US6613734B2, “Peptides-containing liposomal surfactants” (The Scripps Research Institute, priority 1988, dated 2003)
